Experimental data taken from patent publication US20130143955A1, “Cyclic di-GMP-II Riboswitches, Motifs, and Compounds, and Methods for Their Use” (priority 2010, published 2013).
Values joined by “and” are separate entries in the source; they are usually repeats but may differ in a detail not shown here. Equal values may be shown once.

Legend:
[1] = tested on: 864 Cd Tandem RNA (c-di-GMP-II aptamer and group I ribozyme); assay: Self-splicing assays of the tandem riboswitch-ribozyme; format: biochemical, Clostridium difficile 630; details: for Rate constant, product 3′E* (alternative GTP attack product) / Rate constant, product 5′E-3′E (spliced exons): Internally 32P-labeled RNA; for Rate constant, product GTP1 (GTP attack at 5′ SS) / Rate constant, product GTP2 (alternative GTP attack site): Unlabeled RNA, [α-32P]GTP
Experimental: Initial ribozyme self-splicing reaction conditions were based on those previously reported for use with a group I ribozyme from Tetrahymena thermophile and consisted of incubations at 30° C. in the presence of 50 mM HEPES (pH 7.5 at 23° C.), 100 mM (NH4)2SO4, 5 mM MgCl2, and 0.1 mM GTP. At concentrations of MgCl2 above 10 mM and temperatures at 37° C. or above, the difference between the ligated exons and alternate GTP attack site products became less pronounced. A range of ligand concentrations were tested for both GTP (5 μM to 1 mM) and cyclic di-GMP ([…] to 100 μM) to determine the optimal amounts for splicing activity, based on probable biological relevance and degree of allosteric control.
Splicing assays for wild-type and mutant RNAs were carried out for 30 minutes (unless otherwise noted) under the conditions described above, with the addition of 50 μM GTP and/or 10 μM c-di-GMP when stated. Final RNA concentrations were lower than 1 μM for all reactions. Reaction mixtures containing unlabeled RNA were supplemented with 1 μCi/μL [α-^32P]GTP. Products were separated by denaturing 6% PAGE. Gels were dried and products were subsequently imaged using a PhosphorImager (Molecular Dynamics).
Aliquots from splicing reactions conducted with either 5′ or internally ^32P-labeled 864 Cd Tandem RNAs were removed at various incubation times and the reactions were terminated by the addition of stop buffer (see below). Similarly, time course experiments were conducted with unlabeled 864 Cd Tandem RNAs supplemented with ˜50 nCi/μL [α-^32P]GTP. Reactions were initiated by combining a solution containing RNA only (˜100 pM 5′ ^32P-labeled RNA, ˜1 μM internally ^32P-labeled RNA, or ˜10 nM unlabeled RNA) with a solution containing the buffer and any ligands to yield a final concentration of contents as described above. The two mixtures were briefly pre-heated at 30° C. and the reaction was initiated by the transfer of buffer/ligand solution to the RNA solution. The zero time point was removed prior to initiation of the reaction and immediately placed into an equivalent volume of stop buffer (8 M urea, 20% w/v sucrose, 0.1% SDS, 0.05% bromophenol blue, 0.05% xylene cyanol FF, 0.09 M Tris base, 0.09 M borate, 1 mM EDTA [pH 8.0]). Likewise, subsequent aliquots were removed at each time point and quenched by placement in stop buffer. Reaction products were separated as described above and dried gels were imaged using a PhosphorImager (Molecular Dynamics).
For precursor RNAs that were initially ^32P-labeled, rate constants for product formation were established by determining the yield of specific products relative to the unprocessed or misprocessed RNAs. First, an average background for each lane was calculated and subtracted from intensities of individual bands or lanes. Second, product band intensities were compared to the total intensity of their corresponding lane, which corrected for any differences due to sample loading. Third, the band intensity at time zero was subtracted from the corresponding bands of all other time points. Yields of products from assays conducted with internally ^32P-labeled RNAs were also corrected for the number of uridine nucleotides in the product RNA versus the total number of uridine nucleotides in the precursor RNA (252 nucleotides). This correction allows for direct comparison of the number of molecules present in each product band. The total fraction of RNA processed at 120 minutes is ˜40%. […] This extent of RNA misfolding, particularly in the absense of possible protein factors, is also typical of other large functional RNAs. Thus, at 120 minutes, approximately 80% of the total reactable RNA has undergone processing. The fractions of RNA processed for the internally ^32P-labeled RNA was adjusted to reflect this value of 80% at 120 minutes.
For splicing assays conducted using unlabeled precursor RNAs, determination of rate constants were conducted differently. […]

[2] = tested on: ompR riboswitch (c-di-GMP-II, ompR 5′ UTR); assay: Single-round transcription termination assay; format: biochemical, C. difficile; details: WT ompR construct, c-di-GMP 50 μM
Experimental: Single round transcription assays were conducted using a method (FIG. 7) adapted as described previously (data not shown) with the following modifications. The elongation mixture contained 50 μM UTP, and 150 μM each of ATP, GTP and CTP. Heparin was added at 0.1 mg/mL at initiation of elongation. For the reactions containing the second messenger, c-di-GMP was added to a final concentration of 50 μM.
A template DNA harboring the 5′ UTR of the ompR gene of C. difficile and its native promoter was prepared by PCR (see Table 4). The predicted intrinsic transcription termination site is 40 nucleotides shorter than the terminus of the template DNA. The ompR riboswitch is predicted to be an ‘ON’ switch based on its architecture. Therefore the full length transcript was expected to undergo decreased termination in the presence of c-di-GMP. Mutant templates M2 and M3 were constructed by PCR and confirmed by sequencing (see Table 4). A template DNA for production of a simulated intrinsic transcription termination product was generated by PCR and was used as a marker during PAGE analysis of transcription products.
Further evidence of aptamer-controlled transcription termination was observed by conducting single-round transcription assays in vitro using another C. difficile c-di-GMP-II construct from the ompR mRNA (FIG. 2C). […]

[3] = GTP + and c-di-GMP +, first 15 minutes

SMILES	ratio of alternative attack product (3′E*) to spliced exons (5′E-3′E) ([1]; 120 minutes, absence of c-di-GMP (GTP only))	Rate constant, product 3′E* (alternative GTP attack product) ([1]; GTP + and c-di-GMP −) [min⁻¹]	Rate constant, product 5′E-3′E (spliced exons) ([1]; GTP + and c-di-GMP −)	Rate constant, product GTP1 (GTP attack at 5′ SS) ([1]; GTP + and c-di-GMP −) [min⁻¹]	Rate constant, product GTP2 (alternative GTP attack site) ([1]; GTP + and c-di-GMP −) [min⁻¹]	EC50 ([1]; 5′ 32P-labeled 864 Cd Tandem RNA, 120 minutes, read-out: S50, concentration of c-di-GMP at which 5′E-3′E is half-maximally processed)	ratio of alternative attack product (3′E*) to spliced exons (5′E-3′E) ([1]; 120 minutes, c-di-GMP present)	increase in initial rate constant for GTP attack at the 5′ SS ([1]; GTP and c-di-GMP versus only GTP, unlabeled RNA, first 15 minutes) [fold]	Rate constant, product 3′E* (alternative GTP attack product) ([1]; GTP + and c-di-GMP +) [min⁻¹]	Rate constant, product 5′E-3′E (spliced exons) ([1]; GTP + and c-di-GMP +)	Rate constant, product GTP1 (GTP attack at 5′ SS) [1, 3] [min⁻¹]	Rate constant, product GTP2 (alternative GTP attack site) [1, 3] [min⁻¹]	increase in the production of spliced exons ([1]; presence versus absence of c-di-GMP, 120 minutes) [fold]	increase in the initial rate constant for spliced product formation ([1]; presence versus absence of c-di-GMP, internally labeled RNA) [fold]	production of full-length RNA transcript (transcription termination control) [2]
Nc1nc2c(ncn2[C@@H]2O[C@H](COP(=O)(O)OP(=O)(O)OP(=O)(O)O)[C@@H](O)[C@H]2O)c(=O)[nH]1 [GTP]	more than 20 fold	0.024	1.1×10^−3 min^−1	0.0018	0.027	–	–	–	–	–	–	–	–	–	–
Nc1nc2c(ncn2[C@@H]2O[C@@H]3COP(=O)(O)O[C@H]4[C@@H](O)[C@H](n5cnc6c(=O)[nH]c(N)nc65)O[C@@H]4COP(=O)(O)O[C@H]3[C@H]2O)c(=O)[nH]1 [c-di-GMP, cyclic di-GMP]	–	–	–	–	–	~30 nM and 30 nM	near equal amounts	~13	0.018	1.3×10^−2 min^−1	0.023	0.023	~8	12	robust production of full-length RNA transcript only when c-di-GMP is added
